Results on 1 compound are retold here after publication PMC2891903 (The Journal of nutritional biochemistry, 2010).

The experiment concerns the target T1, vitamin D receptor (VDR) (Homo sapiens, UniProt P11473).
T1 sequence (P11473 1-427): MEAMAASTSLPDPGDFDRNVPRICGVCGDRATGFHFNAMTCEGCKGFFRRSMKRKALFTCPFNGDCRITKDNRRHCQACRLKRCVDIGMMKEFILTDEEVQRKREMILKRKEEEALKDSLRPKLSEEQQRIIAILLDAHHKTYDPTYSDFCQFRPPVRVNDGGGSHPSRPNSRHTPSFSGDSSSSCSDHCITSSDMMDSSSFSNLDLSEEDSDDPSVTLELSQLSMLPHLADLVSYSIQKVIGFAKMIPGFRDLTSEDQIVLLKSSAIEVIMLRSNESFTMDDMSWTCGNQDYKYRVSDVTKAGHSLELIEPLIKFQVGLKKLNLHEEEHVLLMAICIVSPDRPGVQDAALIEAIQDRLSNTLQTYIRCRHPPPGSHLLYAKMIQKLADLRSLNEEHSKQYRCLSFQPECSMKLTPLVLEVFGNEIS
T1 sequence (P19793 1-462 partner): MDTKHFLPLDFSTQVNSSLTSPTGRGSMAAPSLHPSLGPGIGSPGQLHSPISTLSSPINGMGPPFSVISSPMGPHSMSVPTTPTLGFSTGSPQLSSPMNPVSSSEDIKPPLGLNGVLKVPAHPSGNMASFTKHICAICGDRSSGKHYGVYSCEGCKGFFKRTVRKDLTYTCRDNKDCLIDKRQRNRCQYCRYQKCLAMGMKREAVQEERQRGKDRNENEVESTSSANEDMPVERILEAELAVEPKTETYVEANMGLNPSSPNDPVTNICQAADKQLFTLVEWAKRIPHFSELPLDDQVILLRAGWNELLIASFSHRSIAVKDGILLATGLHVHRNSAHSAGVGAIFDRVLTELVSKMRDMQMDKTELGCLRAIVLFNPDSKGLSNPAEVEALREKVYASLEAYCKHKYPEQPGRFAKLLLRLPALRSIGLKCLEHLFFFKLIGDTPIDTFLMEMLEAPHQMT
Kind of experiment: competitive displacement of [3H][…] from VDR in transfected COS-7 lysate. The class given is binding. A general note: In a radioligand displacement assay an active substance lowers the binding of a labelled ligand.

With `COc1cc(/C=C/C(=O)CC(=O)/C=C/c2ccc(O)c(OC)c2)ccc1O` [CM, curcumin], the affinity corresponds to a Ki of 2.9 µM.

The term Ki denotes a measure of affinity in units of concentration, obtained from inhibition or displacement. Low readings indicate tighter binding, high ones weaker binding.
